Measured values: ChEMBL document CHEMBL3407491, “Synthesis, characterization and in vitro photodynamic antimicrobial activity of basic amino acid-porphyrin conjugates” (Eur J Med Chem, 2015)
Values after ≈ are worked out from the molar mass of the structure shown.

How the values were obtained:
[1] = tested on: Pseudomonas aeruginosa; assay: Bactericidal activity against Pseudomonas aeruginosa ATCC 27853 incubated in dark for 30 mins followed by exposure to light fluences at 650 nm and 6 J/cm2 and then incubated overnight followed by further incubation on LB agar plates for another 24 hrs; assay type: functional; conditions: ATCC 27853, light or radiation study
[2] = tested on: Pseudomonas aeruginosa; assay: Antibacterial activity against Pseudomonas aeruginosa ATCC 27853 incubated in dark for 30 mins and grown for 24 hrs followed by further incubation on LB agar plates for another 24 hrs; assay type: functional
[3] = Singlet oxygen generation of the compound exposed to 4.2 mW/cm2 light energy density assessed as singlet oxygen quantum yield measured at 410 nm in 10 seconds intervals of irradiation at 0.2 uM by DPBF scavenger based assay
[4] = tested on: Escherichia coli; assay: Antibacterial activity against Escherichia coli ATCC 25922 incubated in dark for 30 mins followed by exposure to light fluences at 650 nm and 6 J/cm2 and then incubated overnight measured after 24 hrs; assay type: functional; conditions: ATCC 25922, light or radiation study
[5] = tested on: Escherichia coli; assay: Antibacterial activity against Escherichia coli ATCC 25922 incubated in dark for 30 mins measured after 24 hrs; assay type: functional
[6] = tested on: Staphylococcus aureus; assay: Antibacterial activity against methicillin-resistant Staphylococcus aureus incubated in dark for 30 mins measured after 24 hrs; assay type: functional
[7] = tested on: Escherichia coli; assay: Antibacterial activity against Escherichia coli ATCC 25922 incubated in dark for 30 mins and grown for 24 hrs followed by further incubation on LB agar plates for another 24 hrs; assay type: functional
[8] = Photostability at 2 x 10^-5 mol/L exposed to 4.2 mW/cm2 light energy density assessed as change in absorption spectra after 30 mins post irradiation; assay type: physicochemical; conditions: 0.5 h, 20 µM
[9] = tested on: Pseudomonas aeruginosa; assay: Antibacterial activity against Pseudomonas aeruginosa ATCC 27853 assessed as log reduction in bacterial count at 10 uM incubated in dark for 30 mins followed by exposure to light fluences at 650 nm and 6 J/cm2 and then incubated overnight measured after 24 hrs; assay type: functional
[10] = tested on: Pseudomonas aeruginosa; assay: Antibacterial activity against Pseudomonas aeruginosa ATCC 27853 incubated in dark for 30 mins followed by exposure to light fluences at 650 nm and 6 J/cm2 and then incubated overnight measured after 24 hrs; assay type: functional; conditions: ATCC 27853, light or radiation study
[11] = Octanol water partition coefficient, log P of the compound by reverse-phase thin-layer chromatography; assay type: physicochemical
[12] = tested on: Escherichia coli; assay: Antibacterial activity against Escherichia coli ATCC 25922 assessed as log reduction in bacterial count at 10 uM incubated in dark for 30 mins followed by exposure to light fluences at 650 nm and 6 J/cm2 and then incubated overnight measured after 24 hrs; assay type: functional
[13] = tested on: Pseudomonas aeruginosa; assay: Antibacterial activity against Pseudomonas aeruginosa ATCC 27853 incubated in dark for 30 mins measured after 24 hrs; assay type: functional
[14] = tested on: Escherichia coli; assay: Bactericidal activity against Escherichia coli ATCC 25922 incubated in dark for 30 mins followed by exposure to light fluences at 650 nm and 6 J/cm2 and then incubated overnight followed by further incubation on LB agar plates for another 24 hrs; assay type: functional; conditions: ATCC 25922, light or radiation study
[15] = tested on: Staphylococcus aureus; assay: Bactericidal activity against methicillin-resistant Staphylococcus aureus incubated in dark for 30 mins followed by exposure to light fluences at 650 nm and 6 J/cm2 and then incubated overnight followed by further incubation on LB agar plates for another 24 hrs; assay type: functional; conditions: light or radiation study
[16] = tested on: Staphylococcus aureus; assay: Antibacterial activity against methicillin-resistant Staphylococcus aureus assessed as log reduction in bacterial count at 10 uM incubated in dark for 30 mins followed by exposure to light fluences at 650 nm and 6 J/cm2 and then incubated overnight measured after 24 hrs; assay type: functional
[17] = tested on: Staphylococcus aureus; assay: Antibacterial activity against methicillin-resistant Staphylococcus aureus incubated in dark for 30 mins and grown for 24 hrs followed by further incubation on LB agar plates for another 24 hrs; assay type: functional
[18] = tested on: Staphylococcus aureus; assay: Antibacterial activity against methicillin-resistant Staphylococcus aureus incubated in dark for 30 mins followed by exposure to light fluences at 650 nm and 6 J/cm2 and then incubated overnight measured after 24 hrs; assay type: functional; conditions: light or radiation study
[19] = tested on: Escherichia coli; assay: Drug uptake in Escherichia coli ATCC 25922 at 12.5 uM by confocal laser scanning microscopy; assay type: ADME, organism-based; conditions: in vivo
[20] = tested on: Staphylococcus aureus; assay: Drug uptake in methicillin-resistant Staphylococcus aureus at 12.5 uM by confocal laser scanning microscopy; assay type: ADME, organism-based; conditions: in vivo
[21] = tested on: Pseudomonas aeruginosa; assay: Drug uptake in Pseudomonas aeruginosa ATCC 27853 at 12.5 uM by confocal laser scanning microscopy; assay type: ADME, organism-based; conditions: in vivo

`NCCCC[C@H](N)C(=O)Nc1ccc(-c2c3nc(c(-c4ccccc4)c4ccc([nH]4)c(-c4ccc(NC(=O)[C@@H](N)CCCCN)cc4)c4nc(c(-c5ccccc5)c5ccc2[nH]5)C=C4)C=C3)cc1` showed an MBC [1] of 62.5 µM (≈ 56.3 µg/mL), an MBC [2] of 125 µM (≈ 113 µg/mL) and an Activity [3] of 0.57. The MIC [4] was 15.6 µM (≈ 14.1 µg/mL), the MIC [5] was 62.5 µM (≈ 56.3 µg/mL) and the MIC [6] was 125 µM (≈ 113 µg/mL). For the same compound, the MBC [7] was 125 µM (≈ 113 µg/mL), the Activity [8] was < 20% and the “log reduction in bacterial count” value [9] was >5. The MIC [10] was 31.2 µM (≈ 28.2 µg/mL), the logP [11] was 1.37 and the “log reduction in bacterial count” value [12] was 2. It also gave an MIC [13] of 62.5 µM (≈ 56.3 µg/mL), an MBC [14] of 31.2 µM (≈ 28.2 µg/mL) and an MBC [15] of 31.2 µM (≈ 28.2 µg/mL). For the same compound, the “Log reduction in bacterial count” value [16] was 3, the MBC [17] was 250 µM (≈ 225 µg/mL) and the MIC [18] was 15.6 µM (≈ 14.1 µg/mL).
Compound `NCCCC[C@H](N)C(=O)Nc1ccc(-c2c3nc(c(-c4ccc(NC(=O)[C@@H](N)CCCCN)cc4)c4ccc([nH]4)c(-c4ccccc4)c4nc(c(-c5ccccc5)c5ccc2[nH]5)C=C4)C=C3)cc1` has an MBC [1] of 62.5 µM (≈ 56.3 µg/mL), an MBC [2] of 125 µM (≈ 113 µg/mL) and an Activity [3] of 0.65. For the same compound, the MIC [4] was 31.2 µM (≈ 28.2 µg/mL), the MIC [5] was 125 µM (≈ 113 µg/mL) and the MIC [6] was 62.5 µM (≈ 56.3 µg/mL). The MBC [7] was 250 µM (≈ 225 µg/mL), the Activity [8] was < 20% and the “log reduction in bacterial count” value [9] was >5. The MIC [10] was 31.2 µM (≈ 28.2 µg/mL), the logP [11] was 1.39 and the “log reduction in bacterial count” value [12] was 2. For the same compound, the MIC [13] was 62.5 µM (≈ 56.3 µg/mL), the MBC [14] was 62.5 µM (≈ 56.3 µg/mL) and the MBC [15] was 62.5 µM (≈ 56.3 µg/mL). The “Log reduction in bacterial count” value [16] was 3, the MBC [17] was 125 µM (≈ 113 µg/mL) and the MIC [18] was 31.2 µM (≈ 28.2 µg/mL).
With `NCCCC[C@H](N)C(=O)Nc1ccc(-c2c3nc(c(-c4ccccc4)c4ccc([nH]4)c(-c4ccccc4)c4nc(c(-c5ccccc5)c5ccc2[nH]5)C=C4)C=C3)cc1` the MBC [1] was 500 µM (≈ 379 µg/mL), the MBC [2] was > 500 µM and the Activity [3] was 0.83. For the same compound, the MIC [4] was 500 µM (≈ 379 µg/mL), the MIC [5] was > 500 µM and the MIC [6] was > 500 µM. For the same compound, the MBC [7] was > 500 µM, the Activity [8] was < 20% and the Drug uptake [19] was “Not Active”. The MIC [10] was 250 µM (≈ 189 µg/mL), the logP [11] was 1.69 and the Drug uptake [20] was “Not Active”. For the same compound, the MIC [13] was 500 µM (≈ 379 µg/mL), the MBC [14] was > 500 µM and the MBC [15] was > 500 µM. For the same compound, the Drug uptake [21] was “Not Active”, the MBC [17] was > 500 µM and the MIC [18] was 500 µM (≈ 379 µg/mL).
